From patent publication US10947253B2, “Fused polycyclic dimers” (Ankh Life Sciences Limited, priority 2019, dated 2021)
Read-outs that look alike come from different tables or passages of the source.

Key:
A498 = assay: MTT growth inhibition (in vitro cytotoxicity), A498; assay type: cell-based; conditions: Homo sapiens, average IC50
Protocol: (§1) The following Table sets forth the IC50 values of harmaline and quinoline analogs against 23 human cancer cell lines. Growth inhibition effects (in vitro cytotoxicity) on pancreatic, endometrial, breast, lung, ovarian, renal, cervical, lymphoma, and myeloma cancer cells were determined by MTT assays and represented by average IC50 values. In the Table, the results are given in terms of μM, and nd=not determined.

RPMI-8226 = assay: MTT growth inhibition (in vitro cytotoxicity), RPMI-8226; assay type: cell-based; conditions: Homo sapiens, average IC50
Protocol: as §1

DoHH-2 = assay: MTT growth inhibition (in vitro cytotoxicity), DoHH-2; assay type: cell-based; conditions: Homo sapiens, average IC50
Protocol: as §1

HEC-1a = assay: MTT growth inhibition (in vitro cytotoxicity), HEC-1a; assay type: cell-based; conditions: Homo sapiens, average IC50
Protocol: as §1

L363 = assay: MTT growth inhibition (in vitro cytotoxicity), L363; assay type: cell-based; conditions: Homo sapiens, L-363, average IC50
Protocol: as §1

human cancer cell lines = assay: Cancer cell growth inhibition, summary over cell lines; assay type: cell-based; conditions: read-out: cancer cell growth inhibition (IC50)
Protocol: as §1

OCI-LY3 = assay: MTT growth inhibition (in vitro cytotoxicity), OCI-LY3; assay type: cell-based; conditions: Homo sapiens, average IC50
Protocol: as §1

BxPC-3 = assay: MTT growth inhibition (in vitro cytotoxicity), BxPC-3; assay type: cell-based; conditions: Homo sapiens, average IC50
Protocol: as §1

Metabolic half-life = assay type: in vitro ADME; conditions: read-out: metabolic half-lives
MDA-MB-231 = assay: MTT growth inhibition (in vitro cytotoxicity), MDA-MB-231; assay type: cell-based; conditions: Homo sapiens, average IC50
Protocol: as §1

KMS-34 = assay: MTT growth inhibition (in vitro cytotoxicity), KMS-34; assay type: cell-based; conditions: Homo sapiens, average IC50
Protocol: as §1

SiHA = assay: MTT growth inhibition (in vitro cytotoxicity), SiHA; assay type: cell-based; conditions: Homo sapiens, average IC50
Protocol: as §1

H1975 (EGFR mut) = assay: MTT growth inhibition (in vitro cytotoxicity), H1975 (EGFR mut); assay type: cell-based; conditions: Homo sapiens, NCI-H1975, average IC50
Protocol: as §1

AN3CA = assay: MTT growth inhibition (in vitro cytotoxicity), AN3CA; assay type: cell-based; conditions: Homo sapiens, AN3-CA, average IC50
Protocol: as §1

JIM1 = assay: MTT growth inhibition (in vitro cytotoxicity), JIM1; assay type: cell-based; conditions: Homo sapiens, average IC50
Protocol: as §1

HCC70 = assay: MTT growth inhibition (in vitro cytotoxicity), HCC70; assay type: cell-based; conditions: Homo sapiens, average IC50
Protocol: as §1

FaDu = assay: MTT growth inhibition (in vitro cytotoxicity), FaDu; assay type: cell-based; conditions: Homo sapiens, average IC50
Protocol: as §1

MOLP-8 = assay: MTT growth inhibition (in vitro cytotoxicity), MOLP-8; assay type: cell-based; conditions: Homo sapiens, average IC50
Protocol: as §1

A2780 = assay: MTT growth inhibition (in vitro cytotoxicity), A2780; assay type: cell-based; conditions: Homo sapiens, average IC50
Protocol: as §1

MIA Paca-2 = assay: MTT growth inhibition (in vitro cytotoxicity), MIA Paca-2; assay type: cell-based; conditions: Homo sapiens, average IC50
Protocol: as §1

ASPC-1 = assay: MTT growth inhibition (in vitro cytotoxicity), ASPC-1; assay type: cell-based; conditions: Homo sapiens, ASPC1, average IC50
Protocol: as §1

MDA-MB-468 = assay: MTT growth inhibition (in vitro cytotoxicity), MDA-MB-468; assay type: cell-based; conditions: Homo sapiens, average IC50
Protocol: as §1

A2780CP = assay: MTT growth inhibition (in vitro cytotoxicity), A2780CP; assay type: cell-based; conditions: Homo sapiens, A2780C/P, average IC50
Protocol: as §1

H1650(EGFR mut) = assay: MTT growth inhibition (in vitro cytotoxicity), H1650(EGFR mut); assay type: cell-based; conditions: Homo sapiens, NCI-H1650, average IC50
Protocol: as §1

KMM-1 = assay: MTT growth inhibition (in vitro cytotoxicity), KMM-1; assay type: cell-based; conditions: Homo sapiens, average IC50
Protocol: as §1

Structure (SMILES)	IC50 (A498)	IC50 (RPMI-8226)	IC50 (DoHH-2)	IC50 (HEC-1a)	IC50 (L363)	IC50 (OCI-LY3)	IC50 (BxPC-3)	IC50 (MDA-MB-231)	IC50 (KMS-34)	IC50 (SiHA)	IC50 (H1975 (EGFR mut))	IC50 (AN3CA)	IC50 (JIM1)	IC50 (HCC70)	IC50 (FaDu)	IC50 (MOLP-8)	IC50 (A2780)	IC50 (MIA Paca-2)	IC50 (ASPC-1)	IC50 (KMM-1)	other results
COc1ccc2c3c([nH]c2c1)C(CC(CC1=NCCc2c1[nH]c1cc(OC)ccc21)c1ccc(O)c(OC)c1)=NCC3 [Compound 5, 4-(1,3-bis(7-methoxy-4,9-dihydro-3H-pyrido[3,4-b]indol-1-yl)propan-2-yl)-2-methoxy-phenol]	3.56 µM	3.19 µM	1.83 µM	5.05 µM	2.69 µM	4.54 µM	2.11 µM	2.52 µM	4.72 µM	4.88 µM	6.12 µM	2.5 µM	3.17 µM	2.38 µM	3.87 µM	3.37 µM	5 µM	2.87 µM	6.75 µM	3.48 µM	IC50 (human cancer cell lines; cell lines not specified): 4 to 7 µM; half-life (Metabolic half-life): 1.28 ± 0.0393 h; IC50 (MDA-MB-468): 2.76 µM; IC50 (A2780CP): 3.76 µM; IC50 (H1650(EGFR mut)): 2.78 µM
COc1ccc2c3c([nH]c2c1)C(CC(CC1=NCCc2c1[nH]c1cc(OC)ccc21)c1ccccc1)=NCC3 [Compound 6, 1,1′-(2-phenylpropane-1,3-diyl)bis(7-methoxy-4,9-dihydro-3H-pyrido[3,4-b]indole)]			1.98 µM		1.4 µM								2.22 µM		1.58 µM		2.95 µM	1.85 µM	2.08 µM	1.91 µM	IC50 (human cancer cell lines; cell lines not specified): 4 to 7 µM
COc1ccc2[nH]c3c(c2c1)CCN=C3CCCC1=NCCc2c1[nH]c1ccc(OC)cc21 [Compound 7, 1,3-bis(6-methoxy-4,9-dihydro-3H-pyrido[3,4-b]indol-1-yl)propane]	5.39 µM	1.97 µM	2.41 µM	7.02 µM	2.47 µM	8.85 µM	3.21 µM	3.12 µM	4.41 µM	12.7 µM	5.77 µM	3.01 µM	6.15 µM	5.13 µM	2.34 µM	1.88 µM	2.54 µM	4.54 µM	7.9 µM	5.18 µM	IC50 (human cancer cell lines; cell lines not specified): 0.6 to 2 µM; half-life (Metabolic half-life): 2.6 ± 0.124 h; IC50 (MDA-MB-468): 2.6 µM; IC50 (A2780CP): 4.12 µM; IC50 (H1650(EGFR mut)): 4.95 µM
COc1ccc2[nH]c3c(c2c1)CCN=C3CC(C)(C)CC1=NCCc2c1[nH]c1ccc(OC)cc21 [Compound 8, 1,1′-(2,2-dimethylpropane-1,3-diyl)bis(6-methoxy-4,9-dihydro-3H-pyrido[3,4-b]indole)]	1.71 µM	0.81 µM	2.21 µM	2.22 µM	1.21 µM	2.59 µM	0.95 µM	1.5 µM	1.7 µM	2.89 µM	2.08 µM	1.96 µM	2.59 µM	1.3 µM	0.98 µM	0.67 µM	1.38 µM	1.22 µM	2.07 µM	1.49 µM	IC50 (human cancer cell lines; cell lines not specified): 0.6 to 2 µM; half-life (Metabolic half-life): 6.88 ± 1.94 h; IC50 (MDA-MB-468): 1.9 µM; IC50 (A2780CP): 2.23 µM; IC50 (H1650(EGFR mut)): 1.78 µM
COc1ccc2[nH]c3c(c2c1)CCN=C3CCCCC1=NCCc2c1[nH]c1ccc(OC)cc21 [Compound 9, 1,4-bis(6-methoxy-4,9-dihydro-3H-pyrido[3,4-b]indol-1-yl)butane]	19.2 µM	5.54 µM	6.48 µM	20.7 µM	8.34 µM	6.99 µM	10.7 µM	19.4 µM	15.1 µM	19.7 µM	19.1 µM	20.7 µM	21.1 µM	11.9 µM	6.82 µM	3.68 µM	11.6 µM	6.58 µM	20.2 µM	12.2 µM	IC50 (MDA-MB-468): 7.09 µM; IC50 (A2780CP): 17.8 µM; IC50 (H1650(EGFR mut)): 15.1 µM
COc1ccc2c3c([nH]c2c1)C(CC(CC1NCCc2c1[nH]c1cc(OC)ccc21)c1ccc(O)c(OC)c1)NCC3 (centres unmarked) [Compound 10, 4-(1,3-bis(7-methoxy-2,3,4,9-tetrahydro-1H-pyrido[3,4-b]indol-1-yl)propan-2-yl)-2-methoxyphenol]			2.24 µM		2.17 µM								2.27 µM		2.61 µM		6.14 µM	2.53 µM	4.62 µM	2.53 µM	
COc1ccc2c3c([nH]c2c1)C(CC(CC1NCCc2c1[nH]c1cc(OC)ccc21)c1ccccc1)NCC3 (centres unmarked) [Compound 11, 1,1′-(2-phenylpropane-1,3-diyl)bis(7-methoxy-2,3,4,9-tetrahydro-1H-pyrido[3,4-b]indole)]			2.31 µM		1.92 µM								2.42 µM		2.22 µM		3.4 µM	2.25 µM	2.4 µM	2.05 µM	IC50 (human cancer cell lines; cell lines not specified): 2 to 4 µM
COc1cc(C(Cc2nccc3ccccc23)Cc2nccc3ccccc23)ccc1O [Compound 13, 4-(1,3-di(isoquinolin-1-yl)propan-2-yl)-2-methoxyphenol]	38.5 µM	18 µM	19.5 µM	39.8 µM	29.2 µM	36.7 µM	20.1 µM	28.2 µM	11.8 µM	45.2 µM	42.2 µM	19.5 µM	29.2 µM	37.2 µM	33.6 µM	9.71 µM	27.2 µM	19.7 µM	49 µM	14.8 µM	IC50 (MDA-MB-468): 19.6 µM; IC50 (A2780CP): 25.1 µM; IC50 (H1650(EGFR mut)): 38.1 µM
COc1cc(C(Cc2ccc3ccccc3n2)Cc2ccc3ccccc3n2)ccc1O [Compound 16, 4-(1,3-di(quinolin-2-yl)propan-2-yl)-2-methoxyphenol]	81.3 µM	15.2 µM	14.8 µM	67.7 µM	29.5 µM	77.5 µM	19.5 µM	31.6 µM	14.8 µM	84.3 µM	58.9 µM	19.7 µM	35.4 µM	35.2 µM	49.2 µM	16 µM	29.7 µM	24.5 µM	94.6 µM	17 µM	IC50 (MDA-MB-468): 31.6 µM; IC50 (A2780CP): 22.3 µM; IC50 (H1650(EGFR mut)): 51 µM
c1ccc(C(Cc2ccc3ccccc3n2)Cc2ccc3ccccc3n2)cc1 [Compound 17, 2,2′-(2-phenylpropane-1,3-diyl)diquinoline]	21.9 µM	7.92 µM	6.9 µM	25.4 µM	7.99 µM	23.8 µM	7.64 µM	14.5 µM	7.85 µM	23.5 µM	30.1 µM	9.35 µM	11 µM	17.2 µM	18.6 µM	6.56 µM	13.3 µM	13.3 µM	28.7 µM	7.99 µM	IC50 (MDA-MB-468): 25.8 µM; IC50 (A2780CP): 9 µM; IC50 (H1650(EGFR mut)): 24.6 µM
COc1ccc2nc(CC(Cc3ccc4cc(OC)ccc4n3)c3ccccc3)ccc2c1 [Compound 18, 2,2′-(2-phenylpropane-1,3-diyl)bis(6-methoxyquinoline)]	> 100 µM	17.8 µM	14.3 µM	37.6 µM	17.4 µM	42.2 µM	25.1 µM	> 100 µM	17.2 µM	> 100 µM	> 100 µM	41.8 µM	31.7 µM	> 100 µM	30.3 µM	15 µM	25.6 µM	21.9 µM	> 100 µM	14.8 µM	IC50 (MDA-MB-468): > 100 µM; IC50 (A2780CP): 26.6 µM; IC50 (H1650(EGFR mut)): 48.5 µM
COc1ccc2c3c([nH]c2c1)C(C)=NCC3 [harmaline, reference compound]																					IC50 (human cancer cell lines): 25 µM
COc1cc(C=O)ccc1O [vanillin, reference compound]																					IC50 (human cancer cell lines; cell lines not specified): 40 µM
